In patent publication US4251520A, “Glucofuranose derivatives” (priority 1976, dated 1981):
Read-outs that look alike come from different tables or passages of the source.

What was measured:
[1] = tested on: edema induced by carrageenan; test: Anti-inflammatory activity, carrageenin-induced oedema; assay type: in vivo, rat; conditions: for inhibition in vivo at 500 mg/kg: po, read-out: % inhibition of edema induced by carrageenan
Description: Beginning, therefore, with D-glucose, we have prepared 1,2:5,6-di-O-isopropylidene-α-D-glucofuranose (II): [drawing 2] as well as 1,2-O-isopropylidene-α-D-glucofuranose and 1,2-O-isopropylidene-3,5,6-tri-O-benzyl-α-D-glucofuranose (1; Glen W. L., Myers G. S., Grant G. A., J. Chem. Soc., 2568/1951; (2) Meyer A. S., Reichstein T., Helv. Chim. Acta, 29, 139/1946; (3) Huber G., Rossi A., Helv. Chim. Acta, 51, 1185/1968) and have compared these compounds with (I) for anti-inflammatory activity against carrageenin-induced oedema (500 mg/kg, p.o. in rats).

[2] = tested on: edema induced by formalin; test: Anti-inflammatory activity, formalin-induced edema; assay type: in vivo, rat; conditions: po; for inhibition in vivo at 500 mg/kg: read-out: % inhibition of edema induced by formalin
granuloma = test: Granuloma cotton pellet test; conditions: for inhibition in vivo at 200 mg/kg: Rattus norvegicus, po, read-out: % inhibition of granuloma
[3] = Analgesic activity, protection from writhing; assay type: in vivo, mouse; conditions: po, read-out: Analgesic activity, protection from writhing %
edema induced by dextran = test: Anti-inflammatory activity, dextran-induced edema; assay type: in vivo, rat; conditions: po; for inhibition in vivo at 500 mg/kg: read-out: % inhibition of edema induced by dextran
spasm by histamine = test: Antispasmodic activity in vitro, spasm by histamine
in vivo = conditions: mouse, in vivo, po
Antipyretic activity = assay type: in vivo, rat; conditions: for Antipyretic activity (potency in comparison with aspirin = 100): 400 mg/kg p.o. rat; for Antipyretic action (in words): rat, in vivo
capillary permeability [4] = conditions: 500 mg/kg p.o. mouse
spasm by acetylcholine = test: Antispasmodic activity in vitro, spasm by acetylcholine
[5] = Analgesic activity, hot plate test; assay type: in vivo, mouse; conditions: po, read-out: Analgesic activity, increase of reaction time %
[6] = Analgesic action (overall); conditions: mouse, in vivo
capillary permeability [7] = test: Capillary permeability test
mouse = test: in vivo; conditions: oral route, even at a dose of 4,000 mg./kg.
[8] = background; cited from earlier work
[9] = Preliminary pharmacological screening (overall); assay type: in vivo
[10] = tested on: oedema induced by carrageenin, dextran and formalin; test: Anti-inflammatory activity tests (oedema by carrageenin, dextran and formalin); assay type: in vivo; conditions: rat
[11] = tested on: edema induced by carrageenan; test: Anti-inflammatory activity, carrageenin-induced oedema; assay type: in vivo; conditions: po; at a dose of 200 mg/kg p.o., rat (footnote e)
[12] = tested on: spasms induced by histamine and acetylcholine; test: Antispasmodic activity tests in vitro (overall)
[13] = 500 mg/kg p.o. mouse, hot plate test
[14] = at a dose of 200 mg/kg p.o., rat (footnote e)
[15] = at a dose of 400 mg/kg p.o., mouse (footnote d)

Compound | inhibition in vivo at 200 mg/kg (granuloma) | Antispasmodic activity in vitro, ED50, inhib. of spasm by histamine (spasm by histamine) | LD50 (in vivo) | Antipyretic activity (potency in comparison with aspirin = 100) (Antipyretic activity) | Antipyretic action (in words) (Antipyretic activity) | Antispasmodic activity in vitro, ED50, inhib. of spasm by acetylcholine (spasm by acetylcholine) | inhibition in vivo at 500 mg/kg ([1]; 500 mg/kg p.o. rat) | inhibition in vivo at 500 mg/kg ([2]; 500 mg/kg p.o. rat) | inhibition in vivo at 500 mg/kg ([3]; 500 mg/kg p.o. mouse) | inhibition in vivo at 500 mg/kg (edema induced by dextran; 500 mg/kg p.o. rat) | Capillary permeability, decrease % (capillary permeability [7]; 500 mg/kg p.o. mouse) | Oral toxicity / tolerance (in words) (mouse) | change in vivo at 500 mg/kg [5, 13] | other results
CC1(C)OCC(C2OC3OC(C)(C)OC3C2O)O1 (stereo not drawn) | 0% | > 100 µg/mL | 4000 mg/kg | 63% | present | > 100 µg/mL |  |  |  |  |  |  |  | inhibition in vivo at 500 mg/kg ([1]; Rattus norvegicus): 33%; Anti-inflammatory activity compared with (I), preliminary tests ([1]; carrageenin-induced oedema, 500 mg/kg, p.o. in rats): fully comparable with that of (I); inhibition in vivo at 500 mg/kg ([2]; Rattus norvegicus): 19%; inhibition in vivo at 500 mg/kg ([3]; Mus musculus): 20%; inhibition in vivo at 500 mg/kg (edema induced by dextran; Rattus norvegicus): 0%; Capillary permeability, decrease % (capillary permeability [4]): 46%; change in vivo at 500 mg/kg ([5]; Mus musculus): 0%
CCOC1O[C@H]([C@@H](COCc2ccccc2)OCc2ccccc2)[C@H](OCc2ccccc2)[C@H]1O (stereo partly drawn) [I, ethyl 3,5,6-tri-O-benzyl-D-glucofuranoside, reference compound] | 0% | 20 µg/mL | > 4000 mg/kg | 9% | little or no activity | 30 µg/mL | 20% | 14% | 0% | 0% | 48% | well tolerated | 10% | Analgesic action (in words) [6]: moderate or nil; Known pharmacological activity (in words) [8]: anti-inflammatory and anti-allergic activity
CCCCCCCCCCCCCCCCOC1C(C2COC(C)(C)O2)OC2OC(C)(C)OC21 (stereo not drawn) [VIII] |  |  | > 4000 mg/kg | 0% |  |  | 13% | 0% | 20% | 0% | 22% | well tolerated | 0% | 
C=CCOC1C(C2COC(C)(C)O2)OC2OC(C)(C)OC21 [IX, 3-O-allyl-1,2:5,6-di-O-isopropylidene-α-D-glucofuranose] | 16% | 60 µg/mL | > 4000 mg/kg | 44% | retained | 60 µg/mL | 68% | 29% | 20% | 39% | 43% | well tolerated | 0% | Spectrum and potency of action in comparison with (I) (in words) [9]: analogous or even better spectrum and potency of action; Anti-inflammatory potency compared with aspirin and phenylbutazone (in words) [10]: as potent as or more potent than aspirin and phenylbutazone; Inhibition of oedema induced by carrageenin, dextran and formalin, compared with (I) (in words) [10]: clearly more active than (I); Inhibitory activity in the granuloma cotton pellet test (in words) (granuloma; rat, in vivo): some inhibitory activity; Activity against spasms produced by acetylcholine (in words) (spasm by acetylcholine): moderately active
CC1(C)OCC(C2OC3OC(C)(C)OC3C2OCc2ccccc2)O1 (stereo not drawn) [XI] |  | > 100 µg/mL | > 4000 mg/kg | 8% |  | > 100 µg/mL | 39% | 21% | 20% | 0% | 29% | well tolerated | 0% | 
CCCCC1C(=O)N(c2ccccc2)N(c2ccccc2)C1=O [Phenylbutazone, reference compound] | 31% | > 100 µg/mL |  | 85% |  | > 100 µg/mL |  |  | 100% |  |  |  | 10% | inhibition in vivo at 200 mg/kg [2, 14]: 13%; inhibition in vivo at 200 mg/kg (edema induced by dextran; [14]): 15%; Capillary permeability, decrease % (capillary permeability [7]; [15]): 75%; inhibition in vivo at 200 mg/kg [11]: 52%; Antispasmodic activity (in words) [12]: inactive
CC(=O)OC1C(C2COC(C)(C)O2)OC2OC(C)(C)OC21 [XII, 3-Acetyl-1,2:5,6-di-O-isopropylidene-α-D-glucofuranose] |  | > 100 µg/mL | > 4000 mg/kg | 0% |  | > 100 µg/mL | 21% | 9% | 0% | 0% | 26% | well tolerated | 20% | 
CC(=O)Oc1ccccc1C(=O)O [Aspirin, reference compound] | 12% | > 100 µg/mL | 1000 mg/kg |  |  | > 100 µg/mL | 53% | 29% | 100% | 47% |  |  | 70% | Capillary permeability, decrease % (capillary permeability [7]; [15]): 73%; Antispasmodic activity (in words) [12]: inactive
